Experiments:
[1] = test system: Staphylococcus aureus 15981; test: Disc diffusion (Kirby-Bauer), zone of inhibition; format: cell-based; details: Staphylococcus aureus 15981; 500 μg/mL; '/' = no zone; read-out: Zone of inhibition
In short: (§1)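 Kirby-Bauer per CLSI 2017: 1 in 200 dilutions of overnight cultures (LB for Gram-negatives, TSB for Gram-positives) spread on Mueller-Hinton agar. Discs loaded with 50 μL antibiotic were added and plates incubated 24 h at 37 °C. Zone of inhibition recorded.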

Escherichia coli DH5α = test: Disc diffusion (Kirby-Bauer), zone of inhibition; format: cell-based; details: Escherichia coli DH5α; 500 μg/mL; '/' = no zone; read-out: Zone of inhibition
In short: as §1

MRSA 252 [2] = test: Disc diffusion (Kirby-Bauer), zone of inhibition; format: cell-based, Staphylococcus aureus; details: Staphylococcus aureus, 500 μg/mL, '/' = no zone, read-out: Zone of inhibition
In short: as §1

MSSA 476 [3] = test: Disc diffusion (Kirby-Bauer), zone of inhibition; format: cell-based, Staphylococcus aureus; details: Staphylococcus aureus, 500 μg/mL, '/' = no zone, read-out: Zone of inhibition
In short: as §1

HEK293 cells = test: Cytotoxicity assay, resazurin (CO-ADD); details: set concentration of 32 μg/mL
Description: The cytotoxicity studies were performed by CO-ADD (The Community for Open Antimicrobial Drug Discovery), funded by the Wellcome trust (UK) and the University of Queensland, Australia.^(28) In this study, the compounds were screened against a human embryonic kidney cell line, HEK293, at a set concentration of 32 μg/mL.
DMEM supplemented with 10% FBS was used as growth media and the cells were incubated together with the compounds for 20 hours at 37° C. in 5% CO2.
Cytotoxicity (or cell viability) was measured by fluorescence, excitation: 560/10 nm, emission: 590/10 nm (F560/590), after addition of 5 μL of 25 μg/mL Resazurin (2.3 μg/mL final concentration) and after incubation for further 3 h at 37° C. in 5% CO2. The fluorescence intensity was measured using a Tecan M1000 Pro monochromator plate reader, using automatic gain calculation CC50 (concentration at 50% cytotoxicity) were calculated by curve fitting the inhibition values vs. log(concentration) using sigmoidal dose-response function, with variable fitting values for bottom, top and slope. The curve fitting was implemented using Pipeline Pilot's dose-response component.

MRSA 252 [4] = test: MIC, broth micro-dilution; format: cell-based, Staphylococcus aureus; details: Staphylococcus aureus, read-out: MIC
In short: (§2)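 Broth micro-dilution followed CLSI 2017: 1:2 antibiotic dilutions in TSB were inoculated at 5×10^5 CFU/mL. OD was recorded every 12 min over 18 h at 37 °C, and MIC was derived from sigmoidal dose-response fits.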

MSSA 476 [5] = test: MIC, broth micro-dilution; format: cell-based, Staphylococcus aureus; details: Staphylococcus aureus, MSSA, read-out: MIC
In short: as §2

[6] = test system: various Staphylococcus aureus strains; test: Disc diffusion, Staphylococcus aureus strain study; format: cell-based; details: Staphylococcus aureus, 500 μg/mL
From the text: At this point in the study it was decided to perform a disc diffusion assay study on 50 S. aureus strains. […] Moreover, by employing a range of mutant strains of S. aureus with specific gene-deletions, it was believed that if particular strains were resistant to the lead compounds, it could provide insights on the likely protein target of the lead antibiotics. However, all six of the compounds utilized in this study were able to inhibit growth of all 50 strains of S. aureus assayed at the chosen concentration of 500 μg/mL concentration (Table 5).
E. coli DH5α, P. aeruginosa PA01 and the 53 S. aureus strains were recovered from frozen (−80° C.) glycerol (15% v/v) stocks on Lysogeny agar (LA)—Gram negative and trypticase soy agar (TSA)—plates at 37° C. for 24 hours. Single colonies were placed in either 3 mL Lysogeny broth (LB)—Gram negative or trypticase soy broth (TSB)—Gram positive and incubated at 37° C., 250 rpm for 18 hours.
The antibiotic activity was determined using a Kirby-Bauer method according to Clinical Standard Laboratory Institute (CSLI) Guidelines (2017). Briefly, 180 μL of a 1 in 200 dilution (in LB or TSB) of overnight cultures of selected Gram negative and Gram positive bacteria were applied to an agar plate containing the solid growth medium, Mueller-Hinton agar (MHA). Sterile discs, inoculated with 50 μL of antibiotic, were first added to the agar plate before the plates were incubated for 24 hours at 37° C. Following incubation, the zone of inhibition (if it existed) was recorded.

[C-]#[N+]C=Cc1ccc(O)cc1 [Compound 2, 4-(2-Isocyanovinyl)phenol]
100 µg/mL: MIC (MSSA 476 [5])
17 mm: zone of inhibition at 500 µg/mL ([6]; strain EOE 41)
26 mm: zone of inhibition at 500 µg/mL ([6]; strain S364_5_11)
no toxicity: toxicity towards the HEK293 cell line (in words) (HEK293 cells)
90 µg/mL: MIC (MRSA 252 [4])
12 mm: zone of inhibition at 500 µg/mL ([6]; strain ASARM 72) | zone of inhibition at 500 µg/mL ([6]; strain EOE 3)
25 mm: zone of inhibition at 500 µg/mL ([6]; strain S197_1_1)
18 mm: zone of inhibition at 500 µg/mL ([6]; strain EOE 30) | zone of inhibition at 500 µg/mL ([6]; strain EOE 57) | zone of inhibition at 500 µg/mL ([6]; strain S295_1_3) | zone of inhibition at 500 µg/mL ([6]; strain Sa_TPS 3118)
14 mm: zone of inhibition at 500 µg/mL ([6]; strain ASARM 70) | zone of inhibition at 500 µg/mL ([6]; strain ASARM 71) | zone of inhibition at 500 µg/mL ([6]; strain ASARM 76) | zone of inhibition at 500 µg/mL ([6]; strain ASARM 77) | zone of inhibition at 500 µg/mL ([6]; strain EOE 35) | zone of inhibition at 500 µg/mL ([6]; strain EOE 52) | zone of inhibition at 500 µg/mL ([6]; strain S139_7_7) | zone of inhibition at 500 µg/mL ([6]; strain S295_1_2) | zone of inhibition at 500 µg/mL ([6]; strain Sa_TPS 3026) | zone of inhibition at 500 µg/mL ([6]; strain Sa_TPS 3133) | zone of inhibition at 500 µg/mL ([6]; strain Sa_TPS 3134) | zone of inhibition at 500 µg/mL ([6]; strain USFL 008) | zone of inhibition at 500 µg/mL ([6]; strain USFL 009) | zone of inhibition at 500 µg/mL ([6]; strain USFL 016) | zone of inhibition at 500 µg/mL ([6]; strain USFL 020) | zone of inhibition at 500 µg/mL ([6]; strain USFL 054)
15 mm: zone of inhibition at 500 µg/mL ([6]; strain ASARM 61) | zone of inhibition at 500 µg/mL ([6]; strain ASARM 75) | zone of inhibition at 500 µg/mL ([6]; strain EOE 45) | zone of inhibition at 500 µg/mL ([6]; strain S197_1_10) | zone of inhibition at 500 µg/mL ([6]; strain Sa_TPS 3097) | zone of inhibition at 500 µg/mL ([6]; strain Sa_TPS 3104) | zone of inhibition at 500 µg/mL ([6]; strain Sa_TPS 3106) | zone of inhibition at 500 µg/mL ([6]; strain USFL 018) | zone of inhibition at 500 µg/mL ([6]; strain USFL 028) | zone of inhibition at 500 µg/mL ([6]; strain USFL 035)
13 mm: zone of inhibition at 500 µg/mL ([6]; strain ASARM 79) | zone of inhibition at 500 µg/mL ([6]; strain ASARM 80)
16 mm: zone of inhibition at 500 µg/mL ([6]; MRSA, strain MRSA 252) | zone of inhibition at 500 µg/mL ([6]; strain ASARM 73) | zone of inhibition at 500 µg/mL ([6]; strain EOE 23) | zone of inhibition at 500 µg/mL ([6]; strain EOE 42) | zone of inhibition at 500 µg/mL ([6]; strain EOE 54) | zone of inhibition at 500 µg/mL ([6]; strain S197_1_8) | zone of inhibition at 500 µg/mL ([6]; strain S197_1_9) | zone of inhibition at 500 µg/mL ([6]; strain Sa_TPS 3072) | zone of inhibition at 500 µg/mL ([6]; strain Sa_TPS 3103) | zone of inhibition at 500 µg/mL ([6]; strain USFL 012) | zone of inhibition at 500 µg/mL ([6]; strain USFL 021)
22 mm: zone of inhibition at 500 µg/mL [1] | zone of inhibition at 500 µg/mL (MRSA 252 [2]) | zone of inhibition at 500 µg/mL ([6]; strain S364_5_12)
20 mm: zone of inhibition at 500 µg/mL (Escherichia coli DH5α) | zone of inhibition at 500 µg/mL (MSSA 476 [3]) | zone of inhibition at 500 µg/mL ([6]; strain S295_1_1) | zone of inhibition at 500 µg/mL ([6]; strain Sa_TPS 3092)

— patent publication US20240246905A1 (University of Leicester, priority 2021, published 2024)
